Molecular target: T1, sGC α1/β1 heterodimer (Homo sapiens, UniProt Q02108+Q02153)
T1 construct: expressed in transfected cells; host or cells: CHO-K1 (clone #7, CHO-K1/sGC)
T1 sequence (Q02108 1-690): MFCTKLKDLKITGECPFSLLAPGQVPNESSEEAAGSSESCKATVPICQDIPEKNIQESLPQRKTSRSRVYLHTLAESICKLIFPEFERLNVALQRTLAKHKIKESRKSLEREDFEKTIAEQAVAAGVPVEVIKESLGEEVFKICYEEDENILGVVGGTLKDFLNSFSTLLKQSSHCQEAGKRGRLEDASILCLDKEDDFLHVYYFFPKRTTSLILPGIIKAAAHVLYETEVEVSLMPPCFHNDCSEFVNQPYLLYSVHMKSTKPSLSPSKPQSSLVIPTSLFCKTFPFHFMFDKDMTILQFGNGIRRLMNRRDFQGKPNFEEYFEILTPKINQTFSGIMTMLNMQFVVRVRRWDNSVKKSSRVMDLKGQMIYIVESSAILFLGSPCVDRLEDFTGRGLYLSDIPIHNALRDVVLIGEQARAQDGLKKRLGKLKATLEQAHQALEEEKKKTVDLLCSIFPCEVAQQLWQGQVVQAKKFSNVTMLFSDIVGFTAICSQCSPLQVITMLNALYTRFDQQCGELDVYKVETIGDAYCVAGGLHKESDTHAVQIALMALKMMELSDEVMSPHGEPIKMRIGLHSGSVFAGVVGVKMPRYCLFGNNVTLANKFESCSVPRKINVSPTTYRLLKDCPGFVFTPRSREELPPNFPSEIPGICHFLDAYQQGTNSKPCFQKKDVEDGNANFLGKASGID
T1 sequence (Q02153 1-619): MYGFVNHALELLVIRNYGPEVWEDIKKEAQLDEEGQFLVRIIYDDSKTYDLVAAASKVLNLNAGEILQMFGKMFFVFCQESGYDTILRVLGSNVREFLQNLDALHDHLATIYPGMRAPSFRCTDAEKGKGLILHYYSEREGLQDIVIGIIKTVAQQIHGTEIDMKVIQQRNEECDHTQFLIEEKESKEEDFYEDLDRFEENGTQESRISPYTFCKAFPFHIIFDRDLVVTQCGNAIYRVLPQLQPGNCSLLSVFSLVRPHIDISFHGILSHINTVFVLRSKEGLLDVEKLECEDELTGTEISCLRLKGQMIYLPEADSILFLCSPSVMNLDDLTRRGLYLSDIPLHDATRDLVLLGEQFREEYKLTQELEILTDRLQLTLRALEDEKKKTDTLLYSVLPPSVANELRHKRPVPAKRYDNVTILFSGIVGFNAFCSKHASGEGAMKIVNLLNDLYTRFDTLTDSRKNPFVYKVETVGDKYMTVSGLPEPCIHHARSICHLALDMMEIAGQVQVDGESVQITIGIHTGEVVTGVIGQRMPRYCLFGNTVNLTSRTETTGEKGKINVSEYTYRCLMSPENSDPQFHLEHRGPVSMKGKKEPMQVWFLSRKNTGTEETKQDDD
Test: Cell-Based sGC Functional Assay (CASA Assay), cGMP by HTRF in CHO-K1/sGC cells
Details: for Emax: CHO-K1, percent activation relative to maximum cGMP production of Compound A (= 100%), read-out: % Act.; for EC50: cGMP production, 1 hr at 37° C., 4P fit, presence or absence of 1 μM DETA-NO not given, read-out: IP (nM) (inflection point)
Excerpt: Biological Assay 1: Cell-Based sGC Functional Assay (CASA Assay)
sGC is a heme-containing enzyme that converts GTP to secondary messenger cGMP. Increases in cGMP levels affect several physiological processes including vasorelaxation through multiple downstream pathways. […] Heme-dependent activators (HDAs) preferentially activate sGC containing a ferrous heme group. To determine the effect of sGC activators on enzyme activity, the CASA assay was developed to monitor the generation of cGMP in a cell line that stably expresses the heterodimeric sGC protein.
A CHO-K1 cell line stably expressing the sGC α1/β1 heterodimer was generated using a standard transfection protocol. CHO-K1 cells were transfected with plasmids pIREShyghsGCα1 and pIRESneo-hsGCβ1 simultaneously using FUGENE reagent. Clones that stably express both subunits were selected with hygromycin and neomycin for ˜2 weeks. Clone #7 was chosen for the assay and was designated CHO-K1/sGC. CHO-K1/sGC cells were maintained in F-K12 medium containing 10% heat-inactivated Fetal Bovine Serum (FBS), 100 μg/mL penicillin/streptomycin, 0.5 mg/mL hygromycin and 0.25 mg/mL G418. The cells were then cryopreserved in LN2. On the day of the assay, cells were thawed and resuspended in EBSS Assay Buffer (Sigma, E3024) supplemented with 5 mM MgCl2, 10 mM HEPES (4-(2-hydroxyethyl)piperazine-1-ethanesulfonic acid) and 0.05% BSA (bovine serum albumin) (EAB) and cell density was then adjusted to 4×10^5/mL with EAB. IBMX (3-isobutyl-1-methylxanthin, 0.5 mM) was added to inhibit degradation of cGMP. Compounds were diluted from DMSO stock solutions and added to the assay at a final DMSO concentration of 2.5%. Cells were incubated with compounds in the presence and absence of 1 μM of Diethylenetriamine/nitric oxide adduct (DETA-NO; Sigma, 17018) for 1 hr at 37° C. At the end of the incubation period, the reaction was terminated and the cells were lysed with the detection reagents from Cisbio Kits. The level of intracellular cGMP was determined using an HTRF-based assay kit (CisBio, 62GM2PEC), which detects the displacement of a fluorescence labeled cGMP from its specific antibody. The cGMP produced by test compounds was directly compared to the maximum cGMP production (this value was set to equal 100% activation.) of the published sGC-HDA Compound A:
[drawing 175] (Example 1 in WO 2010/065275, published Jun. 10, 2010). The test compounds' activities were then expressed as a percentage of Compound A, the standard in every experiment. This percent activation was calculated either in the presence or absence of DETA-NO which was then plotted. IP and maximum fold induction was derived using ADA analysis software for 4P fit.
The compounds in the Examples of the instant invention had inflection points (IP) less than or equal to 10 μM and most less than or equal to about 1 μM.

| SMILES | Emax [%] | EC50 [nM] | % Act. (percent activation relative to maximum cGMP production of Compound A (= 100%)) [%] |
| --- | --- | --- | --- |
| CCCc1nc(-c2ncc3c(n2)NC(=O)C3(C)c2ccc(Cl)cn2)cn2ccnc12 (stereo not shown) [Example 57A, 5-(5-chloropyridin-2-yl)-5-methyl-2-(8-propylimidazo[1,2-a]pyrazin-6-yl)-5H-pyrrolo[2,3-d]pyrimidin-6(7H)-one] | 90 | 981 |  |
| CC1(c2ccc(Cl)cc2)C(=O)Nc2nc(-c3cn4ccnc4c(CCCC(F)(F)F)n3)ncc21 (stereo not shown) [Example 40A, 5-(4-chlorophenyl)-5-methyl-2-(8-(4,4,4-trifluorobutyl)imidazo[1,2-a]pyrazin-6-yl)-5H-pyrrolo[2,3-d]pyrimidin-6(7H)-one] | 110 | 22 |  |
| CC1(c2ccc(Cl)cn2)C(=O)Nc2nc(-c3cn4ccnc4c(Cc4ccc(F)cc4)n3)nc(O)c21 (stereo not shown) [Example 16A, 5-(5-chloropyridin-2-yl)-2-(8-(4-fluorobenzyl)imidazo[1,2-a]pyrazin-6-yl)-4-hydroxy-5-methyl-5H-pyrrolo[2,3-d]pyrimidin-6(7H)-one] | 111 | 45 |  |
| CCc1nc(-c2cn3ccnc3c(CCC(F)(F)C(F)(F)F)n2)nc2c1C(C)(c1ccc(F)cc1)C(=O)N2 (stereo not shown) [Example 76A, 4-ethyl-5-(4-fluorophenyl)-5-methyl-2-(8-(3,3,4,4,4-pentafluorobutyl)imidazo [1,2-a]pyrazin-6-yl)-5H-pyrrolo[2,3-d]pyrimidin-6(7H)-one] | 130 | 95 |  |
| O=C1Nc2nc(-c3cn4ccnc4c(Cc4ccccc4F)n3)ncc2C1(C(=O)NC1CC1)C1CC1 (single isomer, unassigned) [Example 70A, N,5-dicyclopropyl-2-(8-(2-fluorobenzyl)imidazo[1,2-a]pyrazin-6-yl)-6-oxo-6,7-dihydro-5H-pyrrolo[2,3-d]pyrimidine-5-carboxamide] |  | 179 | 169 |
| COc1nc(-c2cn3ccnc3c(CCC(F)(F)C(F)(F)F)n2)nc2c1C(C)(c1ccc(F)cc1)C(=O)N2 (stereo not shown) [Example 89A, 5-(4-Fluorophenyl)-4-methoxy-5-methyl-2-(8-(3,3,4,4,4-pentafluorobutyl)imidazo[1,2-a]pyrazin-6-yl)-5H-pyrrolo[2,3-d]pyrimidin-6(7H)-one] | 110 | 606 |  |
| O=C1Nc2nc(-c3cn4ccnc4c(Cc4ccc(F)cc4)n3)ncc2C1(C(=O)NC1CC1)C1CC1 (single isomer, unassigned) [Example 68A, N,5-dicyclopropyl-2-(8-(4-fluorobenzyl)imidazo[1,2-a]pyrazin-6-yl)-6-oxo-6,7-dihydro-5H-pyrrolo[2,3-d]pyrimidine-5-carboxamide] | 138 | 254 |  |
| CCCCc1nc(-c2ncc3c(n2)NC(=O)C3(C)c2ccc(F)cn2)cn2cc(C)nc12 (stereo not shown) [Example 91B, 2-(8-Butyl-2-methylimidazo[1,2-a]pyrazin-6-yl)-5-(5-fluoropyridin-2-yl)-5-methyl-5H-pyrrolo[2,3-d]pyrimidin-6(7H)-one] | 117 | 330 |  |

Other lines, results leading:

| Emax [%] | EC50 [nM] | % Act. (percent activation relative to maximum cGMP production of Compound A (= 100%)) [%] | SMILES |
| --- | --- | --- | --- |
| 128 | 107 |  | CCCCc1nc(-c2nc(O)c3c(n2)NC(=O)C3(c2ccc(F)c(F)c2)C2CC2)cn2ccnc12 (stereo not shown) [Example 19A, 2-(8-butylimidazo[1,2-a]pyrazin-6-yl)-5-cyclopropyl-5-(3,4-difluorophenyl)-4-hydroxy-5H-pyrrolo[2,3-d]pyrimidin-6(7H)-one] |
| 70 | 183 |  | CC1(c2ccc(Cl)c(F)c2)C(=O)Nc2nc(-c3cn4ccnc4c(CCC(F)(F)F)n3)nc(O)c21 (stereo not shown) [Example 13B, 5-(4-chloro-3-fluorophenyl)-4-hydroxy-5-methyl-2-(8-(3,3,3-trifluoropropyl)imidazo[1,2-a]pyrazin-6-yl)-5H-pyrrolo[2,3-d]pyrimidin-6(7H)-one] |
| 112 | 7 |  | CCCCc1nc(-c2ncc3c(n2)NC(=O)C3(c2ccc(F)c(F)c2)C2CC2)cn2ccnc12 (stereo not shown) [Example 43A, 2-(8-butylimidazo[1,2-a]pyrazin-6-yl)-5-cyclopropyl-5-(3,4-difluorophenyl)-5H-pyrrolo[2,3-d]pyrimidin-6(7H)-one] |
| 122 | 115 |  | CCCCc1nc(-c2nc(O)c3c(n2)NC(=O)C3(c2ccc(Cl)c(F)c2)C2CC2)cn2ccnc12 (stereo not shown) [Example 21A, 2-(8-butylimidazo[1,2-a]pyrazin-6-yl)-5-(4-chloro-3-fluorophenyl)-5-cyclopropyl-4-hydroxy-5H-pyrrolo[2,3-d]pyrimidin-6(7H)-one] |
| 84 | 702 |  | CCCc1nc(-c2nc(O)c3c(n2)NC(=O)C3(C)c2ccc(Cl)c(F)c2)cn2ccnc12 (stereo not shown) [Example 15B, 5-(4-chloro-3-fluorophenyl)-4-hydroxy-5-methyl-2-(8-propylimidazo[1,2-a]pyrazin-6-yl)-5H-pyrrolo[2,3-d]pyrimidin-6(7H)-one] |
| 93 | 5 |  | CCCCc1nc(-c2ncc3c(n2)NC(=O)C3(c2ccc(Cl)cc2F)C2CC2)cn2ccnc12 (stereo not shown) [Example 45A, 2-(8-butylimidazo[1,2-a]pyrazin-6-yl)-5-(4-chloro-2-fluorophenyl)-5-cyclopropyl-5H-pyrrolo[2,3-d]pyrimidin-6(7H)-one] |
| 126 | 438 |  | O=C1Nc2nc(-c3cn4ccnc4c(CCCC(F)(F)F)n3)nc(O)c2C1(c1ccc(Cl)c(F)c1)C1CC1 (stereo not shown) [Example 22A, 5-(4-chloro-3-fluorophenyl)-5-cyclopropyl-4-hydroxy-2-(8-(4,4,4-trifluorobutyl)imidazo[1,2-a]pyrazin-6-yl)-5H-pyrrolo[2,3-d]pyrimidin-6(7H)-one] |
| 100 | 133 |  | CCCCc1nc(-c2nc(O)c3c(n2)NC(=O)C3(C)c2ccc(F)cc2)cn2ccnc12 (stereo not shown) [Example 79A, 2-(8-Butylimidazo[1,2-a]pyrazin-6-yl)-5-(4-fluorophenyl)-4-hydroxy-5-methyl-5H-pyrrolo[2,3-d]pyrimidin-6(7H)-one] |
| 109 | 234 |  | CCCCc1nc(-c2nc(O)c3c(n2)NC(=O)C3(C)c2ccc(F)cn2)cn2ccnc12 (stereo not shown) [Example 83B, 2-(8-butylimidazo[1,2-a]pyrazin-6-yl)-5-(5-fluoropyridin-2-yl)-4-hydroxy-5-methyl-5H-pyrrolo[2,3-d]pyrimidin-6(7H)-one] |

— patent US10213429B2, “Imidazo-pyrazinyl derivatives useful as soluble guanylate cyclase activators” (Merck Sharp & Dohme Corp., priority 2015, dated 2019)
